Experimental data published in ChEMBL document CHEMBL1121427, “Decomposition of pharmacological activity indices into mutually independent components using principal component analysis” (J Med Chem, 1980).

Assays:
Format in all cases: functional
Design in all cases: unit not given here
Bacillus subtilis = experiment: Inhibitory activity against Bacillus subtilis
Staphylococcus aureus = experiment: The compound was evaluated for activity against strain Micrococcus aureus
Streptococcus pyogenes = experiment: The compound was evaluated for activity against strain Streptococcus hemolyticus
Enterococcus faecalis = experiment: The compound was evaluated for activity against strain Streptococcus faecalis

SMILES | -Log C (Bacillus subtilis) | -Log C (Staphylococcus aureus) | -Log C (Streptococcus pyogenes) | -Log C (Enterococcus faecalis)
COC1/C=C/OC2(C)Oc3c(C)c(O)c4c(O)c(cc(OCC(=O)NC(C)(C)C)c4c3C2=O)NC(=O)/C(C)=C\C=C\C(C)C(O)C(C)C(O)C(C)C(OC(C)=O)C1C (stereo not given) | 5.42 | 6.73 | 6.43 | 5.83
COC1/C=C/OC2(C)Oc3c(C)c(O)c4c(O)c(cc(OCC(=O)N(C)CCC#N)c4c3C2=O)NC(=O)/C(C)=C\C=C\C(C)C(O)C(C)C(O)C(C)C(OC(C)=O)C1C (stereo not given) | 5.74 | 6.97 | 6.97 | 6.05
COC1/C=C/OC2(C)Oc3c(C)c(O)c4c(O)c(cc(OCC(=O)N5C(C)COCC5C)c4c3C2=O)NC(=O)/C(C)=C\C=C\C(C)C(O)C(C)C(O)C(C)C(OC(C)=O)C1C (stereo not given) | 6.15 | 7.93 | 7.76 | 6.98
COC1/C=C/OC2(C)Oc3c(C)c(O)c4c(O)c(cc(OCC(=O)Nc5ccccc5)c4c3C2=O)NC(=O)/C(C)=C\C=C\C(C)C(O)C(C)C(O)C(C)C(OC(C)=O)C1C (stereo not given) | 5.43 | 6.92 | 6.84 | 6.04
CCCNC(=O)COc1cc2c(O)c3c(O)c(C)c4c(c13)C(=O)C(C)(O/C=C/C(OC)C(C)C(OC(C)=O)C(C)C(O)C(C)C(O)C(C)/C=C/C=C(/C)C(=O)N2)O4 (stereo not given) | 5.41 | 6.5 | 6.42 | 5.82
COC1/C=C/OC2(C)Oc3c(C)c(O)c4c(O)c(cc(OCC(=O)N(C)C5CCCC5)c4c3C2=O)NC(=O)/C(C)=C\C=C\C(C)C(O)C(C)C(O)C(C)C(OC(C)=O)C1C (stereo not given) | 6.36 | 8.14 | 8.22 | 7.22
CCN(C)C(=O)COc1cc2c(O)c3c(O)c(C)c4c(c13)C(=O)C(C)(O/C=C/C(OC)C(C)C(OC(C)=O)C(C)C(O)C(C)C(O)C(C)/C=C/C=C(/C)C(=O)N2)O4 (stereo not given) | 6.03 | 7.95 | 7.95 | 7.06
COC1/C=C/OC2(C)Oc3c(C)c(O)c4c(O)c(cc(OCC(=O)N5CCOCC5C)c4c3C2=O)NC(=O)/C(C)=C\C=C\C(C)C(O)C(C)C(O)C(C)C(OC(C)=O)C1C (stereo not given) | 6.67 | 7.92 | 8.36 | 6.22
COC1/C=C/OC2(C)Oc3c(C)c(O)c4c(O)c(cc(OCC(=O)N(Cc5ccccc5)Cc5ccccc5)c4c3C2=O)NC(=O)/C(C)=C\C=C\C(C)C(O)C(C)C(O)C(C)C(OC(C)=O)C1C (stereo not given) | 6.89 | 8.49 | 7.89 | 7.49
CCNC(=O)COc1cc2c(O)c3c(O)c(C)c4c(c13)C(=O)C(C)(O/C=C/C(OC)C(C)C(OC(C)=O)C(C)C(O)C(C)C(O)C(C)/C=C/C=C(/C)C(=O)N2)O4 (stereo not given) | 5.4 | 6.99 | 7.5 | 6.2
CCCN(C)C(=O)COc1cc2c(O)c3c(O)c(C)c4c(c13)C(=O)C(C)(O/C=C/C(OC)C(C)C(OC(C)=O)C(C)C(O)C(C)C(O)C(C)/C=C/C=C(/C)C(=O)N2)O4 (stereo not given) | 6.65 | 7.91 | 8.13 | 7.31
COC1/C=C/OC2(C)Oc3c(C)c(O)c4c(O)c(cc(OCC(=O)N5C(C)CCC5C)c4c3C2=O)NC(=O)/C(C)=C\C=C\C(C)C(O)C(C)C(O)C(C)C(OC(C)=O)C1C (stereo not given) | 6.67 | 8.22 | 8.22 | 7.45
C=CCN(CC=C)C(=O)COc1cc2c(O)c3c(O)c(C)c4c(c13)C(=O)C(C)(O/C=C/C(OC)C(C)C(OC(C)=O)C(C)C(O)C(C)C(O)C(C)/C=C/C=C(/C)C(=O)N2)O4 (stereo not given) | 6.67 | 8.22 | 8.44 | 7.22
COC1/C=C/OC2(C)Oc3c(C)c(O)c4c(O)c(cc(OCC(=O)N(CCCl)CCCl)c4c3C2=O)NC(=O)/C(C)=C\C=C\C(C)C(O)C(C)C(O)C(C)C(OC(C)=O)C1C (stereo not given) | 6.38 | 7.24 | 7.47 | 5.77
CCCN(CC)C(=O)COc1cc2c(O)c3c(O)c(C)c4c(c13)C(=O)C(C)(O/C=C/C(OC)C(C)C(OC(C)=O)C(C)C(O)C(C)C(O)C(C)/C=C/C=C(/C)C(=O)N2)O4 (stereo not given) | 6.35 | 8.01 | 8.22 | 7.22
COC1/C=C/OC2(C)Oc3c(C)c(O)c4c(O)c(cc(OCC(=O)N(C)C(C)(C)C)c4c3C2=O)NC(=O)/C(C)=C\C=C\C(C)C(O)C(C)C(O)C(C)C(OC(C)=O)C1C (stereo not given) | 6.66 | 8.62 | 8.31 | 7.62
COC1/C=C/OC2(C)Oc3c(C)c(O)c4c(O)c(cc(OCC(=O)N5CCCC5)c4c3C2=O)NC(=O)/C(C)=C\C=C\C(C)C(O)C(C)C(O)C(C)C(OC(C)=O)C1C (stereo not given) | 5.73 | 7.26 | 8.21 | 6.34
COC1/C=C/OC2(C)Oc3c(C)c(O)c4c(O)c(cc(OCC(=O)N5CCCCC5)c4c3C2=O)NC(=O)/C(C)=C\C=C\C(C)C(O)C(C)C(O)C(C)C(OC(C)=O)C1C (stereo not given) | 6.04 | 8.01 | 8.22 | 6.92

SMILES | -Log C (Bacillus subtilis) | -Log C (Staphylococcus aureus) | -Log C (Streptococcus pyogenes) | -Log C (Enterococcus faecalis)
COC1/C=C/OC2(C)Oc3c(C)c(O)c4c(O)c(cc(OCC(=O)Nc5ccc(Br)cc5)c4c3C2=O)NC(=O)/C(C)=C\C=C\C(C)C(O)C(C)C(O)C(C)C(OC(C)=O)C1C (stereo not given) | 5.78 | 6.48 | 6.66 | 6.56
CCCN(CCC)C(=O)COc1cc2c(O)c3c(O)c(C)c4c(c13)C(=O)C(C)(O/C=C/C(OC)C(C)C(OC(C)=O)C(C)C(O)C(C)C(O)C(C)/C=C/C=C(/C)C(=O)N2)O4 (stereo not given) | 6.53 | 8.15 | 8.15 | 7.15
COC1/C=C/OC2(C)Oc3c(C)c(O)c4c(O)c(cc(OCC(=O)N5CCC(C)CC5)c4c3C2=O)NC(=O)/C(C)=C\C=C\C(C)C(O)C(C)C(O)C(C)C(OC(C)=O)C1C (stereo not given) | 6.36 | 8.22 | 7.92 | 7.27
COC1/C=C/OC2(C)Oc3c(C)c(O)c4c(O)c(cc(OCC(=O)N(C)C)c4c3C2=O)NC(=O)/C(C)=C\C=C\C(C)C(O)C(C)C(O)C(C)C(OC(C)=O)C1C (stereo not given) | 5.72 | 7.12 | 7.89 | 6.02
CCCCN(C)C(=O)COc1cc2c(O)c3c(O)c(C)c4c(c13)C(=O)C(C)(O/C=C/C(OC)C(C)C(OC(C)=O)C(C)C(O)C(C)C(O)C(C)/C=C/C=C(/C)C(=O)N2)O4 (stereo not given) | 6.35 | 8.44 | 8.62 | 7.22
COC1/C=C/OC2(C)Oc3c(C)c(O)c4c(O)c(cc(OCC(=O)N(c5ccccc5)c5ccccc5)c4c3C2=O)NC(=O)/C(C)=C\C=C\C(C)C(O)C(C)C(O)C(C)C(OC(C)=O)C1C (stereo not given) | 7.05 | 8.65 | 7.55 | 7.65
COC1/C=C/OC2(C)Oc3c(C)c(O)c4c(O)c(cc(OCC(=O)NC(C)C)c4c3C2=O)NC(=O)/C(C)=C\C=C\C(C)C(O)C(C)C(O)C(C)C(OC(C)=O)C1C (stereo not given) | 5.41 | 6.7 | 7.12 | 5.9
COC1/C=C/OC2(C)Oc3c(C)c(O)c4c(O)c(cc(OCC(=O)N(C)C5CCCCC5)c4c3C2=O)NC(=O)/C(C)=C\C=C\C(C)C(O)C(C)C(O)C(C)C(OC(C)=O)C1C (stereo not given) | 6.68 | 8.15 | 7.98 | 7.53
COC1/C=C/OC2(C)Oc3c(C)c(O)c4c(O)c(cc(OCC(=O)N(C)CCO)c4c3C2=O)NC(=O)/C(C)=C\C=C\C(C)C(O)C(C)C(O)C(C)C(OC(C)=O)C1C (stereo not given) | 5.23 | 6.93 | 7.15 | 5.85
CNC(=O)COc1cc2c(O)c3c(O)c(C)c4c(c13)C(=O)C(C)(O/C=C/C(OC)C(C)C(OC(C)=O)C(C)C(O)C(C)C(O)C(C)/C=C/C=C(/C)C(=O)N2)O4 (stereo not given) | 7.11 | 6.68 | 5.09 | 5.89
COC1/C=C/OC2(C)Oc3c(C)c(O)c4c(O)c(cc(OCC(=O)N5CCOCC5)c4c3C2=O)NC(=O)/C(C)=C\C=C\C(C)C(O)C(C)C(O)C(C)C(OC(C)=O)C1C (stereo not given) | 5.74 | 6.44 | 7.26 | 5.84
COC1/C=C/OC2(C)Oc3c(C)c(O)c4c(O)c(cc(OCC(N)=O)c4c3C2=O)NC(=O)/C(C)=C\C=C\C(C)C(O)C(C)C(O)C(C)C(OC(C)=O)C1C (stereo not given) | 4.78 | 5.7 | 6.62 | 4.91
COC1/C=C/OC2(C)Oc3c(C)c(O)c4c(O)c(cc(OCC(=O)N(CC(C)C)CC(C)C)c4c3C2=O)NC(=O)/C(C)=C\C=C\C(C)C(O)C(C)C(O)C(C)C(OC(C)=O)C1C (stereo not given) | 7.28 | 8.86 | 8.16 | 7.86
CCCCN(CC)C(=O)COc1cc2c(O)c3c(O)c(C)c4c(c13)C(=O)C(C)(O/C=C/C(OC)C(C)C(OC(C)=O)C(C)C(O)C(C)C(O)C(C)/C=C/C=C(/C)C(=O)N2)O4 (stereo not given) | 6.27 | 8.62 | 8.15 | 7.62
COC1/C=C/OC2(C)Oc3c(C)c(O)c4c(O)c(cc(OCC(=O)N(C)Cc5ccccc5)c4c3C2=O)NC(=O)/C(C)=C\C=C\C(C)C(O)C(C)C(O)C(C)C(OC(C)=O)C1C (stereo not given) | 6.37 | 8.24 | 8.16 | 7.09
COC1/C=C/OC2(C)Oc3c(C)c(O)c4c(O)c(cc(OCC(=O)Nc5ccc(Cl)cc5)c4c3C2=O)NC(=O)/C(C)=C\C=C\C(C)C(O)C(C)C(O)C(C)C(OC(C)=O)C1C (stereo not given) | 5.64 | 6.54 | 6.86 | 6.39
CCN(C(=O)COc1cc2c(O)c3c(O)c(C)c4c(c13)C(=O)C(C)(O/C=C/C(OC)C(C)C(OC(C)=O)C(C)C(O)C(C)C(O)C(C)/C=C/C=C(/C)C(=O)N2)O4)c1ccccc1 (stereo not given) | 6.37 | 8.46 | 8.16 | 7.33
